{
  "source": "paper PMC12419922",
  "about": "“Myristoylated Cathelicidin-DM Fused With ANG1-7: A Novel Self-Assembling Antimicrobial Peptide for the Treatment and Mechanism of Diabetic Infected Wounds” (Journal of Diabetes Research, 2025)",
  "key": {"[1]": {"system": "HUVECs", "test": "Transwell migration assay", "type": "cell-based, human", "conditions": "HUVECs in HG + LPS; p < 0.01", "procedure": "HUVECs (1 × 10^4 cells/well) were incubated in the upper chamber of an 8-μm pore size (Corning, New York) and placed into a 24-well plate for 16 h at 37°C with 5% CO2. Cells adhering to the top surface of the Transwell membrane were carefully removed using a cotton swab. Cells that had migrated to the bottom of the chamber were fixed with 4% paraformaldehyde for 30 min and stained with 0.1% CV for 20 min. Finally, the chambers were placed on slides and imaged using an inverted fluorescence microscope (ThermoFish EVOS, United States). The number of cells in five random fields of each chamber was counted to determine migration ability."}, "[2]": {"system": "HUVECs", "test": "ELISA of IL-6 and TNF-α in culture supernatant", "type": "cell-based, human", "conditions": "HG + LPS 24 h", "procedure": "The HUVECs were seeded at 1 × 10^4 cells/well and cultured in 96-well plates. Following the indicated treatments, the levels of IL-6 and TNF-α in culture media were analyzed using ELISA according to the method of the kit. The experiments were repeated three times."}, "[3]": {"system": "HUVECs", "test": "Tube formation (angiogenesis) on Matrigel", "type": "cell-based, human", "conditions": "9 h, n = 3", "procedure": "The formation of vascular structure was observed by matrix glue experiment, and the angiogenesis ability was evaluated in Matrigel stent (Corning, New York). After treatment in each group, 300 μL (2 × 10^5 cells/mL) HUVECs were digested and inoculated into a 24-well plate containing Matrigel scaffold. After 9 h, the formation image of the tube was photographed."}, "[4]": {"system": "HUVECs", "test": "NO secretion, Griess reaction", "type": "cell-based, human", "conditions": "HG + LPS (HG + LPS 0.5 times the original level), n = 3", "procedure": "NO levels were determined using the Griess reaction. Briefly, 100 μL of cell culture supernatant was mixed with an equal volume of Griess reagent and incubated at room temperature in the dark for 30 min. The absorbance of the reaction mixture was measured at 540 nm using a microplate reader. Sodium nitrite (NaNO2) was used as a standard to generate a calibration curve, and the NO concentration in the samples was calculated accordingly. All experiments were independently performed in triplicate to ensure data reliability and reproducibility."}, "[5]": {"system": "HUVECs", "test": "Reactive oxygen species, DCFH-DA flow cytometry", "type": "cell-based, human", "conditions": "20 μg/mL, compared with the HG + LPS group, p < 0.01", "procedure": "To evaluate the antioxidant activity of MYR-DM-ANG1-7, HUVECs were cultured in DMEM supplemented with 10% FBS at 37°C and 5% CO2. After serum starvation for 24 h, the cells were divided into […] experimental groups: normal control group, high glucose + LPS, high glucose + DM group, and high glucose + MYR-DM-ANG1-7. After drug treatment, the cells were washed three times with ice-cold PBS and incubated with 10 μM DCFH-DA probe in serum-free medium at 37°C in the dark for 20 min. After removing the probe with PBS, the fluorescence intensity of 10,000 live cells was immediately measured by flow cytometry (excitation: 488 nm and emission: 530/30 nm). The data were expressed as the geometric mean fluorescence intensity (MFI) of each sample."}, "[6]": {"system": "Human keratinocyte cells (HaCaTs)", "conditions": "50 μg/mL (highest concentration), 24 h, CCK8", "procedure": "(§1) Human keratinocyte cells (HaCaTs) and human skin fibroblasts (HSFs) were seeded in 96-well plates at a density of 5000 cells per well. After overnight culture, different concentrations of AMP MYR-DM-ANG1-7 were added to the cells, and then, the cells were cultured for 24 h. Untreated cells were supplemented with fresh culture medium as the control group. Subsequently, 10% by volume of CCK8 solution (5 mg/mL) was added to each well.\n(§2) After incubation for 1 h, the absorbance in each well was measured at 450 nm using an M200 full-band microplate reader (Infinite M200 PRO, Switzerland). Finally, the cell viability was calculated relative to the control groups."}, "[7]": {"system": "human skin fibroblasts (HSFs)", "conditions": "1.56 μg/mL (lowest concentration), 24 h, CCK8", "procedure": "as §1, §2"}, "[8]": {"system": "E. coli biofilms", "test": "Antibiofilm activity, crystal violet staining and colony counting", "type": "cell-based, Escherichia coli", "conditions": "different concentrations, 37°C, 24 h, crystal violet OD 595 nm and viable count", "procedure": "E. coli (ATCC 25922) and S. aureus (ATCC 25923) were cultured overnight in MHB medium at 37°C. The bacterial suspension was diluted to 100 times and added to a 12-well plate (500 μL/well). Each peptide with a different concentration was added to the corresponding well plate and incubated at 37°C for 24 h. After incubation, 100 μL of culture supernatant was discarded. The biofilm was fixed with 100 μL of 100% methanol for 15 min, then air-dried, then dyed with 0.1% crystal violet (CV) for 30 mins, and washed with distilled water three times. After adding 200 μL of 95% ethanol, the inhibition rate of the biofilm was calculated by measuring the OD value at 595 nm with Infinite M200 PRO, Switzerland. After ultrasonic treatment, the biofilm was fully dispersed into single cells, and the cell suspension was diluted to a suitable concentration for colony counting. All experiments were repeated three times.\nThe formation of bacterial biofilms in the wounds of DFU patients is the main cause of bacterial resistance. By measuring the antibiofilm ability, the inhibitory and clearing effects of drugs on biofilms can be assessed. In the case of preventing biofilm formation, E. coli and S. aureus were cultured in LB nutrient medium with different concentrations of the novel AMP MYR-DM-ANG1-7 in 24-well plates at 37°C and incubate for 24 h. […]"}, "[9]": {"system": "S. aureus (ATCC 25923)", "test": "MIC and growth inhibition, broth microdilution", "type": "cell-based, Staphylococcus aureus", "procedure": "The minimum inhibitory concentrations (MICs) of DM and MYR-DM-ANG1-7 were determined using the broth microdilution method. E. coli (ATCC 25922) and S. aureus (ATCC 25923) were cultured overnight in Mueller–Hinton broth (MHB) at 37°C. The cultures were diluted to 2 × 10^5 CFU/mL. The peptides were serially diluted in 10 mM phosphate-buffered solution (PBS) and added to a 96-well plate. The bacterial suspensions were mixed with an equal volume of peptide solution and incubated at 37°C for 18 h. Bacterial growth inhibition was determined by measuring the absorbance at 600 nm using a M200 multiwavelength microplate reader (Infinite M200 PRO, Switzerland). Subsequently, bacterial suspensions were treated with 1 × MIC, 2 × MIC, 3 × MIC, and 4 × MIC concentrations of the AMPs and sampled at 0, 3, 6, 12, 18, and 24 h. The absorbance was measured at 600 nm. The experiment was repeated three times."}},
  "note": "Where no end group is shown, it is not given here. The star is where a group is joined. Myristoyl = CCCCCCCCCCCCCC(=O)*",
  "data": [
    {"substance": "Myristoyl-SSRRKPCKGWLCKLKLRGGYTLIGSATNLNRPTYVRAGGGDRVYIHP (cysteines drawn unpaired) [MYR-DM-ANG1-7]", "values": [
      {"measurement": "number of cells passing through the chamber (Transwell)", "setting": "[1]", "value": "increased"},
      {"measurement": "TNF-α level", "setting": "[2]", "value": "alleviate the decrease"},
      {"measurement": "main connections of formed blood vessels", "setting": "[3]; HG + LPS (HG + LPS group 0.3 times)", "value": 1.9, "unit": "times"},
      {"measurement": "length of formed blood vessels", "setting": "[3]; HG + LPS (HG + LPS group 0.4 times)", "value": 1.7, "unit": "times"},
      {"measurement": "NO secretion in cell supernatant, increases to", "setting": "[4]", "value": 1.63, "unit": "times"},
      {"measurement": "reduction of intracellular reactive oxygen species level", "setting": "[5]", "value": "approximately 32%"},
      {"measurement": "cell survival rate, HaCaT", "setting": "[6]", "value": 92.4, "unit": "%"},
      {"measurement": "cell survival rate, HSF", "setting": "[7]", "value": 95.16, "unit": "%"},
      {"measurement": "formation of E. coli biofilms", "setting": "[8]", "value": "effectively inhibit"},
      {"measurement": "growth of S. aureus (inhibition curve)", "setting": "[9]; 4 × MIC (128 μg/mL), OD 600 nm at 0-24 h, repeated three times", "value": "completely inhibit"},
      {"measurement": "Minimum inhibitory concentration", "setting": "[9]; S. aureus ATCC 25923, broth microdilution, MHB, 2 × 10^5 CFU/mL, 37°C, 18 h, absorbance 600 nm", "value": 16, "unit": "µg/mL"}
    ]}
  ]
}
